Here are results for 12 compounds from patent US20260022142A1, “MACROCYCLIC IMMUNOMODULATORS” (Bristol-Myers Squibb Company, priority 2022, published 2026).

Molecules are shown by their SMILES. Numbered stars: 1 amine (or outer) side, 2 acyl side, 3 side chain; on linkers, the order of the positions; unused ones are H or OH. Bridge positions count the residues as written; N and C are the ends. Square brackets hold non-standard residues; d marks the D form. Peptide text beside a SMILES is read from it. * marks the point of attachment. ξ: configuration not given here. Bip = N[C@@H](Cc1ccc(-c2ccccc2)cc1)C(=O)O; Phe(3-Me) = Cc1cccc(C[C@H](N)C(=O)O)c1; X5 = CC(C)(CCN)[C@H](N[*:1])C(=O)[*:2]; Val(3-OH) = CC(C)(O)[C@H](N)C(=O)O; hArg = N=C(N)NCCCC[C@H](N)C(=O)O; 4Pal = N[C@@H](Cc1ccncc1)C(=O)O; Cha = N[C@@H](CC1CCCCC1)C(=O)O; Cit = NC(=O)NCCC[C@H](N)C(=O)O; Thr(3ξ) = CC(O)[C@H](N)C(=O)O; 12Ado = NCCCCCCCCCCCC(=O)O; Carboxymethyl = O=C(O)C*; Nle = CCCC[C@H](N)C(=O)O; Orn = NCCC[C@H](N)C(=O)O; Aun = NCCCCCCCCCCC(=O)O; Dab = NCC[C@H](N)C(=O)O; Nva = CCC[C@H](N)C(=O)O; Dap = NC[C@H](N)C(=O)O; AEEA = NCCOCCOCC(=O)O; ξV = CC(C)C(N)C(=O)O

This assay deals with T1, PD-1/PD-L1 interaction (PE-labeled human PD-L1-Ig binding to Jurkat cell line over-expressing human PD-1) (Homo sapiens, UniProt Q15116).
T1 construct: expressed in transfected cells; host or cells: Jurkat
T1 sequence (Q15116 25-288): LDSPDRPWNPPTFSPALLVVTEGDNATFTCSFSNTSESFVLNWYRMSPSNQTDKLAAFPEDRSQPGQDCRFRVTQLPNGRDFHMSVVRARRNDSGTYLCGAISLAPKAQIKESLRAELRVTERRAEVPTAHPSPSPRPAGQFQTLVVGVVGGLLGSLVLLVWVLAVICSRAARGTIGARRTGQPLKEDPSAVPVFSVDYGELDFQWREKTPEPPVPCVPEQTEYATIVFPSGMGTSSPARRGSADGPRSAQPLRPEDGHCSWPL
As to the kind of experiment: Jurkat-PD-1 Cell Binding High-Content Screening Assay (CBA). The conditions noted are these: Jurkat cell line over-expressing human PD-1; PE-labeled PD-L1-Ig 20 nM final; read-out: Jurkat hPD1-PDL1 IC50. Type of assay: cell-based. In short, it runs like this:
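Jurkat cells stably over-expressing human PD-1 were seeded in DMEM with 10% fetal calf serum and pre-incubated with compound for 2 h at 37° C. PE-labeled human PD-L1-Ig was then added at 20 nM final for 1 hour, after which cells were fixed with paraformaldehyde, Hoechst-stained and imaged by high-content microscopy.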
`CC(=O)NCCCC[C@@H]1NC(=O)[C@H](Cc2ccc(-c3ccccc3)cc2)NC(=O)[C@H](Cc2ccc(O)cc2)NC(=O)[C@H](Cc2cccc(C)c2)NC(=O)[C@H](CC(=O)O)NC(=O)[C@H](Cc2ccc(OCC(=O)O)cc2)NC(=O)[C@H](CCN)NC(=O)CSC[C@@H](C(=O)N[C@@H](CCN)C(=O)N[C@@H](CO)C(=O)NCCCCCCCCCCCC(=O)O)NC(=O)[C@H](CCCN)NC(=O)[C@H](C(C)O)NC(=O)[C@H](CC2CCCCC2)NC(=O)[C@H](CCN)NC(=O)[C@@H](CC(C)C)NC(=O)[C@H](CCCN)NC1=O` (stereo partly drawn) [Compound 3623] ({CH2CO}-[Dab]Y(Carboxymethyl)D[Phe(3-Me)]Y[Bip]K(Ac)[Orn][dL][Dab][Cha][Thr(3ξ)][Orn]C[Dab]S[12Ado]-OH; thioether N-14): the IC50 came to 62.3 nM.
To `CCCC[C@@H]1NC(=O)[C@H](CCN)NC(=O)[C@@H](CC(C)C)NC(=O)[C@H](CCCN)NC(=O)[C@H](Cc2ccc(OCC(=O)O)cc2)NC(=O)[C@H](Cc2ccc(-c3ccccc3)cc2)NC(=O)[C@H](Cc2ccc(OCC(=O)O)cc2)NC(=O)[C@H](Cc2cccc(C)c2)NC(=O)[C@H](CC(=O)O)NC(=O)[C@H](Cc2ccc(OCC(=O)O)cc2)NC(=O)[C@H](CN)NC(=O)CSC[C@@H](C(=O)N[C@@H](CCN)C(=O)NCCOCCOCC(=O)NCCCCCCCCCCC(=O)O)NC(=O)[C@H](CCC(=O)O)NC(=O)[C@H](C(C)C)NC1=O` [Compound 1258] ({CH2CO}-[Dap]Y(Carboxymethyl)D[Phe(3-Me)]Y(Carboxymethyl)[Bip]Y(Carboxymethyl)[Orn][dL][Dab][Nle]VEC[Dab][AEEA][Aun]-OH; thioether N-14) belongs 44.6 nM; to `Cc1cccc(C[C@@H]2NC(=O)[C@H](CC(=O)O)NC(=O)[C@H](Cc3ccc(OCC(=O)O)cc3)NC(=O)[C@H](C(C)O)NC(=O)CSC[C@@H](C(=O)N[C@H](CC(N)=O)C(=O)NCCCCCCCCCCC(=O)O)NC(=O)[C@H](CO)NC(=O)[C@H](C(C)C)NC(=O)[C@H](CC3CCCCC3)NC(=O)[C@H](CCN)NC(=O)[C@@H](CC(C)C)NC(=O)[C@H](CCCN)NC(=O)[C@H](Cc3ccc(O)cc3)NC(=O)[C@H](Cc3ccc(-c4ccccc4)cc3)NC(=O)[C@H](C(C)C)NC2=O)c1` (stereo partly drawn) [Compound 3432] ({CH2CO}-[Thr(3ξ)]Y(Carboxymethyl)D[Phe(3-Me)]V[Bip]Y[Orn][dL][Dab][Cha]VSC[dN][Aun]-OH; thioether N-14), 11.4 nM.
On to `CC(C)C[C@H]1NC(=O)[C@H](CCCN)NC(=O)[C@H](C(C)C)NC(=O)[C@H](Cc2ccc(-c3ccccc3)cc2)NC(=O)[C@H](C(C)C)NC(=O)[C@H](Cc2c[nH]c3ccccc23)NC(=O)[C@H](CC(=O)O)NC(=O)[C@H](Cc2ccc(OCC(=O)O)cc2)NC(=O)[C@H](CCCCNC(=N)N)NC(=O)CSC[C@@H](C(=O)N[C@H](CC(N)=O)C(=O)NCCCCCCCCCCC(=O)O)NC(=O)[C@H](CCCN)NC(=O)[C@H](C(C)C)NC(=O)[C@H](CC2CCCCC2)NC(=O)[C@H](CCN)NC1=O` [Compound 3278] ({CH2CO}-[hArg]Y(Carboxymethyl)DWV[Bip]V[Orn][dL][Dab][Cha]V[Orn]C[dN][Aun]-OH; thioether N-14), for which the IC50 is 8.7 nM.
In the case of `Cc1cccc(C[C@@H]2NC(=O)[C@H](CC(=O)O)NC(=O)[C@H](Cc3ccc(OCC(=O)O)cc3)NC(=O)[C@H](CC(N)=O)NC(=O)CSC[C@@H](C(=O)N[C@@H](CCN)C(=O)NCCCCCCCCCCC(=O)O)NC(=O)[C@H](C(C)O)NC(=O)[C@H](C(C)C)NC(=O)[C@H](CC3CCCCC3)NC(=O)[C@H](CCN)NC(=O)[C@@H](CC(C)C)NC(=O)[C@H](CCCN)NC(=O)[C@H](CCCNC(N)=O)NC(=O)[C@H](Cc3ccc(-c4ccccc4)cc3)NC(=O)[C@H](C(C)C)NC2=O)c1` (stereo partly drawn) [Compound 3455] ({CH2CO}-NY(Carboxymethyl)D[Phe(3-Me)]V[Bip][Cit][Orn][dL][Dab][Cha]V[Thr(3ξ)]C[Dab][Aun]-OH; thioether N-14) it was 14.6 nM; in that of `CC(C)C[C@H]1NC(=O)[C@H](CCCN)NC(=O)[C@H](C(C)C)NC(=O)[C@H](Cc2ccc(-c3ccccc3)cc2)NC(=O)[C@H](C(C)C)NC(=O)[C@H](Cc2c[nH]c3ccccc23)NC(=O)[C@H](CC(=O)O)NC(=O)[C@H](Cc2ccc(OCC(=O)O)cc2)NC(=O)[C@H](Cc2ccncc2)NC(=O)CSC[C@@H](C(=O)NCC(=O)NCCOCCOCC(=O)N[C@@H](CCCN)C(=O)NCCCCCCCCCCC(=O)O)NC(=O)[C@H](CN)NC(=O)[C@H](C(C)C)NC(=O)[C@H](CC2CCCCC2)NC(=O)[C@H](CCN)NC1=O` [Compound 3233] ({CH2CO}-[4Pal]Y(Carboxymethyl)DWV[Bip]V[Orn][dL][Dab][Cha]V[Dap]CG[AEEA][Orn][Aun]-OH; thioether N-14), 5.5 nM; in that of `Cc1cccc(C[C@@H]2NC(=O)[C@H](CC(=O)O)NC(=O)[C@H](Cc3ccc(OCC(=O)O)cc3)NC(=O)[C@H]([C@@H](C)O)NC(=O)CSC[C@@H](C(=O)N[C@@H](CCN)C(=O)NCCCCCCCCCCC(=O)O)NC(=O)[C@H](CO)NC(=O)[C@H](C(C)C)NC(=O)[C@H](CC3CCCCC3)NC(=O)[C@H](CCN)NC(=O)[C@@H](CC(C)C)NC(=O)[C@H](CCCN)NC(=O)[C@H](Cc3ccc(OCC(=O)O)cc3)NC(=O)[C@H](Cc3ccc(-c4ccccc4)cc3)NC(=O)[C@H](Cc3ccc(O)cc3)NC2=O)c1` [Compound 2093] ({CH2CO}-TY(Carboxymethyl)D[Phe(3-Me)]Y[Bip]Y(Carboxymethyl)[Orn][dL][Dab][Cha]VSC[Dab][Aun]-OH; thioether N-14), 23.2 nM.
Take `CCC[C@@H]1NC(=O)[C@H](CCN)NC(=O)[C@@H](CC(C)C)NC(=O)[C@H](CCCN)NC(=O)[C@H](Cc2ccc(OCC(=O)O)cc2)NC(=O)[C@H](Cc2ccc(-c3ccccc3)cc2)NC(=O)[C@H](Cc2ccc(OCC(=O)O)cc2)NC(=O)[C@H](Cc2cccc(C)c2)NC(=O)[C@H](CC(=O)O)NC(=O)[C@H](Cc2ccc(OCC(=O)O)cc2)NC(=O)[C@H](CN)NC(=O)CSC[C@@H](C(=O)N[C@@H](CCN)C(=O)NCCOCCOCC(=O)NCCCCCCCCCCC(=O)O)NC(=O)[C@H](CCC(=O)O)NC(=O)[C@H](C(C)C)NC1=O` [Compound 1259] ({CH2CO}-[Dap]Y(Carboxymethyl)D[Phe(3-Me)]Y(Carboxymethyl)[Bip]Y(Carboxymethyl)[Orn][dL][Dab][Nva]VEC[Dab][AEEA][Aun]-OH; thioether N-14): the IC50 was 153 nM.
Turning to `Cc1cccc(C[C@@H]2NC(=O)[C@H](CC(=O)O)NC(=O)[C@H](Cc3ccc(OCC(=O)O)cc3)NC(=O)[C@H](CC(N)=O)NC(=O)CSC[C@@H](C(=O)N[C@@H](CCN)C(=O)NCCCCCCCCCCC(=O)O)NC(=O)[C@H]([C@@H](C)O)NC(=O)[C@H](C(C)C)NC(=O)[C@H](CC3CCCCC3)NC(=O)[C@H](CCN)NC(=O)[C@@H](CC(C)C)NC(=O)[C@H](CCCN)NC(=O)[C@H](Cc3ccc(O)cc3)NC(=O)[C@H](Cc3ccc(-c4ccccc4)cc3)NC(=O)[C@H](C(C)C)NC2=O)c1` [Compound 2739] ({CH2CO}-NY(Carboxymethyl)D[Phe(3-Me)]V[Bip]Y[Orn][dL][Dab][Cha]VTC[Dab][Aun]-OH; thioether N-14), the IC50 came out at 18.9 nM.
To `Cc1cccc(C[C@@H]2NC(=O)[C@H](CC(=O)O)NC(=O)[C@H](Cc3ccc(OCC(=O)O)cc3)NC(=O)[C@H](CCN)NC(=O)CSC[C@@H](C(=O)N[C@@H](CCN)C(=O)N[C@@H](CO)C(=O)NCCCCCCCCCCCC(=O)O)NC(=O)[C@H](CO)NC(=O)[C@H](C(C)(C)O)NC(=O)[C@H](CC3CCCCC3)NC(=O)[C@H](CCN)NC(=O)[C@@H](CC(C)C)NC(=O)[C@H](CCCN)NC(=O)[C@H](Cc3ccc(OCC(=O)O)cc3)NC(=O)[C@H](Cc3ccc(-c4ccccc4)cc3)NC(=O)[C@H](Cc3ccc(OCC(=O)O)cc3)NC2=O)c1` [Compound 3625] ({CH2CO}-[Dab]Y(Carboxymethyl)D[Phe(3-Me)]Y(Carboxymethyl)[Bip]Y(Carboxymethyl)[Orn][dL][Dab][Cha][Val(3-OH)]SC[Dab]S[12Ado]-OH; thioether N-14) belongs 23.3 nM; to `Cc1cccc(C[C@@H]2NC(=O)[C@H](CC(=O)O)NC(=O)[C@H](Cc3ccc(OCC(=O)O)cc3)NC(=O)[C@H](CCCNC(=N)N)NC(=O)CSC[C@@H](C(=O)N[C@@H](CCN)C(=O)NCCCCCCCCCCC(=O)O)NC(=O)[C@H](C(C)(C)CCN)NC(=O)C(C(C)C)NC(=O)[C@H](CC3CCCCC3)NC(=O)[C@H](CCN)NC(=O)[C@@H](CC(C)C)NC(=O)[C@H](CCCN)NC(=O)[C@H](Cc3ccc(OCC(=O)O)cc3)NC(=O)[C@H](Cc3ccc(-c4ccccc4)cc3)NC(=O)[C@H](Cc3ccc(O)cc3)NC2=O)c1` (stereo partly drawn) [Compound 2118] ({CH2CO}-RY(Carboxymethyl)D[Phe(3-Me)]Y[Bip]Y(Carboxymethyl)[Orn][dL][Dab][Cha][ξV][X5]C[Dab][Aun]-OH; thioether N-14), 126 nM; to `CC(C)C[C@H]1NC(=O)[C@H](CCCN)NC(=O)[C@H](Cc2ccc(O)cc2)NC(=O)[C@H](Cc2ccc(-c3ccccc3)cc2)NC(=O)[C@H](Cc2ccc(OCC(=O)O)cc2)NC(=O)[C@H](Cc2ccc(O)cc2)NC(=O)[C@H](CC(=O)O)NC(=O)[C@H](Cc2ccc(OCC(=O)O)cc2)NC(=O)[C@H](CN)NC(=O)CSC[C@@H](C(=O)N[C@@H](CCN)C(=O)NCCOCCOCC(=O)NCCCCCCCCCCC(=O)O)NC(=O)[C@H](CCCN)NC(=O)[C@H](C(C)C)NC(=O)[C@H](CC2CCCCC2)NC(=O)[C@H](CCN)NC1=O` [Compound 1311] ({CH2CO}-[Dap]Y(Carboxymethyl)DYY(Carboxymethyl)[Bip]Y[Orn][dL][Dab][Cha]V[Orn]C[Dab][AEEA][Aun]-OH; thioether N-14), 103 nM.

The IC50 is the concentration that inhibits the measured activity by half.
